# Data taken from publication PMC3648545, “A Phenylalanine to Serine Substitution within an O-Protein Mannosyltransferase Led to Strong Resistance to PMT-Inhibitors in Pichia pastoris” (PLoS ONE, 2013).
# Molecular target: T1, Pmt2p (PpPmt2p) (Komagataella phaffii, UniProt F2QTJ8)
# T1 construct: gene PMT2; full-length native integral ER membrane protein in intact cells (chromosomal PMT2); Pmt1p-Pmt2p heterodimer, other PMTs also present; with Dolichyl-phosphate-mannose--protein mannosyltransferase 1
# Test: HPAEC-PAD of O-mannosylglycan site occupancy on mAb#[…] secreted by intact cells
# Format: cell-based
# Details: fed-batch fermentation, PMTi-4 8 µM (Figure 4 legend; Discussion prints 8 mM); read-out is total O-mannosylation by all PMTs, not isolated Pmt2p; direct binding not shown
# T1 sequence (F2QTJ8 entry or part of it): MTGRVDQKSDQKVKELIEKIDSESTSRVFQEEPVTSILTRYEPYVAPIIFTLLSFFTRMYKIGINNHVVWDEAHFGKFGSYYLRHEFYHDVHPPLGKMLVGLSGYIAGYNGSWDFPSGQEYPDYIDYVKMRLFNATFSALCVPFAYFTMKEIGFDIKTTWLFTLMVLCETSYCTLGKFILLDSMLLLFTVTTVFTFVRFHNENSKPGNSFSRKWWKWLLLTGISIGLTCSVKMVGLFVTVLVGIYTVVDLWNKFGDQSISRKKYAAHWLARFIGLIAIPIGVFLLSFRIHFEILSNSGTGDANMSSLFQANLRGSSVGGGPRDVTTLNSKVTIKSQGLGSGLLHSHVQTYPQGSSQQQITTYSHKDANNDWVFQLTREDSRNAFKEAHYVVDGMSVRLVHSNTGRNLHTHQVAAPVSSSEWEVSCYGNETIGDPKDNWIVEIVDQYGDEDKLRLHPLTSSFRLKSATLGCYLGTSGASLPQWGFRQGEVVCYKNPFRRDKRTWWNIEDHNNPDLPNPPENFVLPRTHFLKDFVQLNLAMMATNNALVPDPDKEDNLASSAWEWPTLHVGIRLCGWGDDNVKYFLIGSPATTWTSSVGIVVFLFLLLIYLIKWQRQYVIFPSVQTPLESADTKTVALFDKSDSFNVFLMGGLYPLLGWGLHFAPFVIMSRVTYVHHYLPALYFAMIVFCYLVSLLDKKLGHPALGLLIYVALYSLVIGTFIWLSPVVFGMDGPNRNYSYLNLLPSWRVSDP
substance,measurement,value
PMTi-4,O-mannosylglycan site occupancy,3.1 O-mannose chains per mAb H2L2 (56 without inhibitor)
